From PubChem BioAssay AID1981 (Southern Research Specialized Biocontainment Screening …, 2009) come the findings set out here.

Usually IC50 stands for the concentration needed to halve the response being measured.

Where “and” joins values, the source holds several entries; their conditions need not be identical. Identical values can stand only once.

The test has as its system S. Typhimurium PhoP-promoter GFP reporter counterscreen, fluorescence, 4 h. Put plainly: S. Typhimurium GFP fluorescence modified counterscreen for PhoP regulon inhibitor project dose response (AID 1981).

For the molecule `COc1ccc(/C=N/Nc2cc(C)nc3c(C)cccc23)cc1`, the 50% inhibitory concentration (IC50) was 93.3 µM.

In the case of `CC(Cc1ccccc1)NCc1ccccc1O` (configuration not stated), the IC50 is 63.8 µM.

For the molecule `Cc1cc(C)c(NC(=O)c2cn3c4c(c(N5CCN(C)CC5)c(F)cc4c2=O)OCC3C)c(C)c1` (configuration not stated), the 50% inhibitory concentration (IC50) is 35.1 µM.

In the case of `O=C(NNC(=O)c1cnccn1)c1ccc(Cl)cc1`, the half-inhibitory concentration (IC50) is 89.5 µM.

On to `OCc1ccc(O)c2ncccc12`, for which the IC50 was 146 µM.

Take `Cc1c2ccncc2c(C)c2c1[nH]c1ccccc12`: the IC50 was 69.7 µM.

Consider `Nc1[nH]c(=O)ncc1F`, for which the concentration for half-maximal inhibition (IC50) is 10.6 µM.

Consider `Cc1ccc(C(c2cc(Cl)c3cccnc3c2O)N2CCN(C)CC2)cc1` (configuration not stated), for which the IC50 was 41.1 µM.

Turning to `COc1ccccc1CNCC(O)Cn1c2ccccc2c2ccccc21` (configuration not stated), the half-maximal inhibitory concentration (IC50) is 88.7 µM.

Take `CC[C@H]1OC(=O)[C@H](C)[C@@H](O[C@H]2C[C@@](C)(OC)[C@@H](O)[C@H](C)O2)[C@H](C)[C@@H](O[C@@H]2O[C@H](C)C[C@H](N(C)C)[C@H]2O)[C@](C)(O)C[C@@H](C)[C@@H]2N[C@@H](COCCOC)O[C@H]([C@H]2C)[C@]1(C)O`: the IC50 is 22.6 µM.

For `Cc1ccccc1OCc1n(CC(=O)OC2CC(C)CCC2C(C)C)c2ccccc2[n+]1C` (configuration not stated), the IC50 was 80.1 µM.

In the case of `CC[C@H]1OC(=O)[C@H](C)[C@@H](O[C@H]2C[C@@](C)(OC)[C@@H](O)[C@H](C)O2)[C@H](C)[C@@H](O[C@@H]2O[C@H](C)C[C@H](N(C)C)[C@H]2O)[C@](C)(O)C[C@@H](C)CN(C)[C@H](C)[C@@H](O)[C@]1(C)O`, the IC50 was 3.63 µM.

Regarding `O=C(OCC1O[C@@H](OC(=O)c2cc(O)c(O)c(O)c2)[C@@H](OC(=O)c2cc(O)c(O)c(O)c2)[C@@H](OC(=O)c2cc(O)c(O)c(O)c2)[C@@H]1OC(=O)c1cc(O)c(O)c(O)c1)c1cc(O)c(O)c(O)c1` (some centres not stated), the IC50 is 83.1 µM.

With `Cc1cc(/C=N/n2c(COc3ccccc3)nc3ccccc3c2=O)c(O)c([N+](=O)[O-])c1`, the IC50 was 61.4 µM.

On to `CCCCCCCCn1c2c(c(=N)c3ccccc31)CCC2`, for which the IC50 was 78.7 µM.

On to `CCCCCc1ccc(OCCOCCn2c[n+](C)c3ccccc32)c(CCCCC)c1`, for which the IC50 is 55 µM.

With `CO/N=C(/C(=O)N[C@@H]1C(=O)N2C(C(=O)O)=CCS[C@H]12)c1cnc(N)s1`, the 50% inhibitory concentration (IC50) was 23.6 µM.

With `CCCCNC(=O)c1cn(CC)c2cc(N3CCN(C)CC3)c(F)cc2c1=O`, the IC50 is 63.6 µM.

For the molecule `CCn1cc(C(=O)O)c(=O)c2cc(F)c(N3CCN(C(=S)Nc4ccc(OC)cc4)CC3)cc21`, the IC50 was 7.49 µM.

On to `CN1CCc2c(sc(NC(=O)c3ccc([N+](=O)[O-])o3)c2C(N)=O)C1`, for which the half-maximal inhibitory concentration (IC50) is 33.7 µM.

Take `C[CH2][Hg][S]c1ccccc1C(=O)O`: the IC50 was 28.1 µM.

For the molecule `CC(C)C(=O)NC(c1cccc([N+](=O)[O-])c1)c1ccc2cccnc2c1O` (configuration not stated), the half-maximal inhibitory concentration (IC50) is 23.3 µM.

For `O=C(N/N=C/c1ccc(O)cc1O)C(=O)N/N=C/c1ccc(O)cc1O`, the IC50 is 51 µM.

Regarding `O=C(N/N=C/c1coc2ccc(Cl)cc2c1=O)c1cc(O)cc(O)c1`, the IC50 was 137 µM.

Regarding `Cc1cc(C(=O)N/N=C/c2ccc(O)c(O)c2O)c(C)n1-c1ccccc1`, the IC50 is 30 µM.

Take `CCCCOc1ccc(Cc2cnc(N)nc2N)cc1`: the half-inhibitory concentration (IC50) is 81.3 µM.

In the case of `O=C(N/N=C/c1sc2ccccc2c1O)c1cccc2ccccc12`, the half-maximal inhibitory concentration (IC50) is 40 µM.

As to `C/C(=C\C(=O)OCCCCCCCCC(=O)O)C[C@@H]1OC[C@H](C[C@@H]2O[C@H]2[C@@H](C)[C@H](C)O)[C@@H](O)[C@H]1O`, the IC50 is 14.1 µM.

Turning to `OCCNCc1c(OCc2ccc(Cl)cc2)ccc2ccccc12`, the IC50 was 105 µM.

Regarding `Oc1c(CN2CCOCC2)cc(COCc2ccccc2)c2cccnc12`, the half-inhibitory concentration (IC50) is 98.2 µM.

Regarding `C=CCNc1ncnc2c1[nH]c1ccccc12`, the half-maximal inhibitory concentration (IC50) was 106 µM.

For the molecule `NC(N)=NN=C1CCCCCCCCCCC1`, the concentration for half-maximal inhibition (IC50) is 81.7 µM.

For the molecule `CCn1cc(C(=O)O)c(=O)c2cc(F)c(N3CCN(C(=S)Nc4ccccc4OC)CC3)cc21`, the half-inhibitory concentration (IC50) is 22 µM.

For the molecule `CCOC(=O)Cc1csc(NC(=O)NC2(C(F)(F)F)Oc3cc(Cl)c(Cl)cc3O2)n1`, the IC50 was 67.8 µM.

On to `Oc1c(C(Nc2nc3ccccc3s2)c2ccco2)ccc2cccnc12` (configuration not stated), for which the half-maximal inhibitory concentration (IC50) was 57 µM.

For the molecule `COc1cc(Cc2cc(N)nc(N)n2)cc(OC)c1OC`, the IC50 was 1 µM.

On to `C/C(=N\NC(=O)c1cc2ccccc2cc1O)c1ccccn1`, for which the half-inhibitory concentration (IC50) was 31.9 µM.

As to `Cc1ccc(C(=O)Sc2cccccc2=O)cc1`, the half-maximal inhibitory concentration (IC50) is 16.5 µM.

Regarding `O=c1c(O)cccc2cc(O)c(O)c(O)c12`, the IC50 is 18.2 µM.

Take `Nc1nonc1C(=O)N/N=C/c1cc(Br)ccc1O`: the IC50 was 13 µM.

For the molecule `COc1cnc(-c2ccccn2)[nH]c1=O`, the concentration for half-maximal inhibition (IC50) is 45.7 µM.

For the molecule `Cc1cccc(Nc2nc(NCc3ccco3)c3ccccc3n2)c1`, the half-inhibitory concentration (IC50) is 37.9 µM.

Take `CCCc1nnc(NC(=O)c2cn(CC)c3cc(N4CCN(C)CC4)c(F)cc3c2=O)s1`: the half-inhibitory concentration (IC50) was 109 µM.

In the case of `CCCCCCOC(=O)C[N+](C)(C)CCOC1CC2CCC1(C)C2(C)C` (configuration not stated), the IC50 was 71.2 µM.

Take `O=C(NC1CCCC1)c1ccc(Cl)s1`: the IC50 was 86.3 µM.

Consider `O=C(N/N=C/c1cc([N+](=O)[O-])ccc1O)c1ccncc1`, for which the IC50 was 101 µM.

With `CCOC(=O)C[n+]1c(C)sc2ccc(OC)cc21`, the IC50 is 133 µM.

With `CCCCCCCCCCOC(=O)Cn1c(COc2ccccc2OC)[n+](C)c2ccccc21`, the IC50 is 37 µM.

For `COc1c(N2CCN(C(=S)NCc3ccccc3)C(C)C2)c(F)cc2c(=O)c(C(=O)O)cn(C3CC3)c12` (configuration not stated), the IC50 is 31.9 µM.

For `O=c1[nH][nH]c(-c2ccccc2O)c1C(C[N+](=O)[O-])c1ccc(Br)cc1` (configuration not stated), the 50% inhibitory concentration (IC50) was 66.5 µM.

On to `CCCOc1ccc(C(=O)NC(=S)N2CCN(c3cc4c(cc3F)c(=O)c(C(=O)O)cn4CC)CC2)cc1`, for which the IC50 was 18.6 µM.

As for `O=S1(=O)N=C(N/N=C/c2ccccn2)c2ccccc21`, the 50% inhibitory concentration (IC50) is 29.1 µM.

`CCCCCCCCCn1c2c(c(=N)c3c1CCC3)CCCC2`: the IC50 is 53.8 µM.

For `CNC[C@H](Cc1ccccc1)NC[C@@H](Cc1cccc2ccccc12)NCCc1ccc(C)cc1`, the half-inhibitory concentration (IC50) is 29.9 µM.

For the molecule `O=[N+]([O-])c1cc(Cl)c(O)c2ncccc12`, the IC50 was 5.99 µM.

For the molecule `CCn1nc(C(=O)O)c(=O)c2cc3c(cc21)OCO3`, the IC50 was 52.1 µM.

Turning to `CN(C)C1C(=O)C(C(N)=O)=C(O)C2(O)C(=O)C3=C(O)c4c(O)cccc4C(C)(O)C3CC12` (configuration not stated), the 50% inhibitory concentration (IC50) is 0.67 µM.

Take `Cc1ccc(-c2csc(NC(=O)C[n+]3cc(-c4ccc(C)cc4)n4c3CCC4)n2)cc1`: the IC50 was 45.2 µM.

With `COc1ccc(CNC[C@@H](CCCCN(C)Cc2ccc(OC)cc2)N2C[C@H](c3ccccc3)N(CCc3ccc(Cl)c(Cl)c3)C(=O)C2=O)cc1`, the half-inhibitory concentration (IC50) is 108 µM.

For `CCn1cc(C(=O)O)c(=O)c2cc(F)c(N3CCN(C(=O)Nc4ccccc4)CC3)cc21`, the half-maximal inhibitory concentration (IC50) was 27.7 µM.

Consider `COc1cc(C(=O)Oc2c(CN3CCOCC3)cc(Cl)c3cccnc23)cc(OC)c1OC`, for which the IC50 was 113 µM.

`O=S(=O)(Nc1cc(Sc2ncn[nH]2)c(O)c2ccccc12)c1ccccc1`: the IC50 was 149 µM.

`CCCCCCCCCCCCCCCCn1cc[n+](C)c1`: the half-inhibitory concentration (IC50) is 13 µM.

As for `NC(Cc1cc(O)c(O)cc1O)C(=O)O` (configuration not stated), the IC50 is 93 µM.

`O=C(Nc1nnc(-c2cccs2)o1)c1cccc(Oc2ccccc2)c1`: the IC50 was 54.6 µM.

As to `O=C(N/N=C/c1cc([N+](=O)[O-])ccc1O)C1CC1`, the IC50 is 45.2 µM.

Regarding `CC(C)CCNCC(O)CON=C1c2ccccc2-c2ccccc21` (configuration not stated), the half-maximal inhibitory concentration (IC50) was 136 µM.

Take `CCn1cc(C(=O)O)c(=O)c2cc(F)c(N3CCN(C(=S)NC(=O)c4ccccc4C)CC3)cc21`: the IC50 is 22.2 µM.

Regarding `CCn1cc(C(=O)O)c(=O)c2cc(F)c(N3CCNCC3)cc21`, the 50% inhibitory concentration (IC50) is 0.89 µM.

`COC12C(COC(N)=O)C3=C(C(=O)C(C)=C(N)C3=O)N1CC1C2N1C` (configuration not stated): the IC50 was 65.8 µM.

Regarding `COc1cccc(N(C(=O)c2ccco2)c2nc(-c3sc(NC(=O)c4ccco4)nc3C)cs2)c1`, the IC50 was 126 µM.

For the molecule `CCCCCN=C(N)N/N=C/c1c[nH]c2ccc(OC)cc12`, the half-inhibitory concentration (IC50) was 40.4 µM.

Regarding `CN1CCN(c2c(F)cc3c(=O)c(C(=O)O)cn4c3c2SCC4)CC1`, the IC50 is 7.73 µM and 6.13 µM.

Regarding `C1=C(CCNCc2ccccc2)CCCC1`, the IC50 was 9.75 µM.

As to `O=C(C[n+]1cccc(CNC(=O)c2ccc(OC(F)F)cc2)c1)Nc1ccc(SC(F)F)cc1`, the IC50 is 96.3 µM.

For the molecule `CS(=O)(=O)c1ccc([C@@H](O)[C@@H](CF)NC(=O)C(Cl)Cl)cc1`, the half-maximal inhibitory concentration (IC50) is 7.98 µM.

`COc1c(N2CCN[C@H](C)C2)c(F)cc2c(=O)c(C(=O)O)cn(C3CC3)c12`: the half-inhibitory concentration (IC50) was 0.34 µM.

On to `O=C1NN(c2ccccc2)C(=O)/C1=C\c1coc2ccc(O)cc2c1=O`, for which the 50% inhibitory concentration (IC50) was 81.9 µM.

For the molecule `O=C1OC(/C(=C\Nc2ccc(F)cc2F)[N+](=O)[O-])c2ccccc21` (configuration not stated), the IC50 is 18.2 µM.

Take `O=C(N/N=C/c1ccc([N+](=O)[O-])s1)C(O)c1ccccc1` (configuration not stated): the 50% inhibitory concentration (IC50) was 68.4 µM.

In the case of `COc1c(N2CCN(C(=S)Nc3ccc(F)cc3)C(C)C2)c(F)cc2c(=O)c(C(=O)O)cn(C3CC3)c12` (configuration not stated), the half-maximal inhibitory concentration (IC50) was 2.68 µM.

In the case of `CC[C@H]1OC(=O)C[C@@H](O)[C@H](C)[C@@H](O[C@@H]2O[C@H](C)C[C@H](N(C)C)[C@H]2O)[C@@H](CC=O)C[C@@H](C)C(=O)C=C[C@]2(C)O[C@H]2[C@@H]1C`, the IC50 is 10.2 µM.

Take `CC(C(=O)c1ccc(-c2ccccc2)cc1)[n+]1cccc(NC(=O)c2ccccc2)c1` (configuration not stated): the IC50 is 106 µM.

In the case of `Oc1ccc(Cl)cc1Cc1cc(Cl)ccc1O`, the 50% inhibitory concentration (IC50) was 57 µM.

In the case of `Cc1ccc(S(=O)(=O)/N=C2/C=C(Sc3ncn[nH]3)C(=O)c3ccccc32)c(C)c1`, the concentration for half-maximal inhibition (IC50) was 56.1 µM.

Consider `O=S(=O)(Nc1cc(Sc2cccc3cccnc23)c(O)c2ccccc12)c1ccc(F)cc1`, for which the half-maximal inhibitory concentration (IC50) is 57.2 µM.

Take `NC1=NC[C@H](Cc2ccc(O)cc2)N1CCCCC1CCCCC1`: the concentration for half-maximal inhibition (IC50) is 84.1 µM.

`O=[N+]([O-])c1ccc(-c2ccn[nH]2)o1`: the IC50 is 33.7 µM.

In the case of `CCN1CCN(C(c2ccc(C(F)(F)F)cc2)c2ccc3cccnc3c2O)CC1` (configuration not stated), the IC50 is 46.1 µM.

As to `CCCCCCCCCCOC(=O)Cn1c(COc2ccc(C)cc2)[n+](C)c2ccccc21`, the half-maximal inhibitory concentration (IC50) was 25.8 µM.

As to `COc1cc(C)c(Cc2cnc(N)nc2N)cc1OC`, the IC50 was 3.05 µM.

With `Cc1cc(SCC(=O)N/N=C/c2ccc(O)c(O)c2O)c(C)cc1Br`, the IC50 was 22.8 µM.
